Laboratory results as given in US8084602B2, “Porphyrin derivatives and their use in photodynamic therapy” (Destiny Pharma Limited, priority 2002, dated 2011).
Where two headings read alike, the source gives them in different places.

Key:
[1] = system: Escherichia coli (strain ATCC 25922); test: Initial screening: growth inhibition after white light illumination; type: cell-based; details: for inhibition at 3 µM: Escherichia coli; for Growth inhibition (%): E. coli, 3 μM, 5 min incubation
Protocol: (§1) The toxic effects of exemplary compounds of the invention against two bacterial strains, the Gram negative bacterium Escherichia coli (strain ATCC 25922) and the Gram positive bacterium Staphylococcus aureus (methicillin-resistant strain ATTC BAA-44), were evaluated by measuring the extent of growth inhibition (bacteriostatic effect) and growth […] (cytocidal effect) in the dark and upon light exposure. Initial compound screening was undertaken using white light [390-740 nm] (150 mW/cm^2) for various timepoints of a concentration of 3 μM (see Table 1). Further experiments were undertaken on those compounds identified from this initial screen using a light source emitting light at a wavelength between 417-420 nm at 15.2 mW/cm^2, 13.68 J/cm^2 (Waldmann Eclairage SA, France) (see Table 20.
(§2) The following protocol was used for the initial screening of the exemplary compounds (Table 1) (see Reddi et al., 2002, Photochem. Photobiol. 75(5):462-470): • (i) E. coli and S. aureus cells were grown overnight on brain heart infusion agar, resuspended in brain heart infusion broth, harvested by centrifugation (3000 g for 15 minutes) and washed once with phosphate buffered saline (PBS) at pH 7.4 consisting 2.7 mM KCl and 0.14 M NaCl. • (ii) The cells were then resuspended in PBS to an optical density at 650 nm of 0.7, which corresponds to a density of 10^8 to 10^9 cells/ml. • (iii) Next, the cells were incubated in PBS in the dark for 5 minutes with 3.0 μM of the compound to be tested. • (iv) After dark incubation, cells were illuminated with white light (wavelength: 390 to 740 nm) (150 mW/cm^2) for up to 30 minutes. During illumination, the cells were kept at 37° C. and magnetically stirred. • (v) Finally, treated and untreated (control) cells were diluted in brain heart infusion broth and maintained at […] while the absorbance of the suspension at 650 nm was monitored at predetermined time points for determining growth curves.
(§3) The percent of growth inhibition in the treated cells was calculated by the following equation: [1−(Ax−A0)/(Ac−A0)]×100 where Ax Ac are the absorbances measured after 3 hours incubation, for the treated and control cell suspensions, respectively, and A0 represents the initial absorbance.

[2] = system: Staphylococcus aureus (methicillin-resistant strain ATTC BAA-44); test: as above; type: cell-based; details: for inhibition at 3 µM: Staphylococcus aureus; for Growth inhibition (%): S. aureus, 3 μM, 5 min incubation
Protocol: as §1, §2, §3

[3] = system: S. aureus ATCC BAA-44 (a methicillin resistant S. aureus); test: Cell survival (colony forming unit) with or without illumination; type: cell-based, Staphylococcus aureus; details: S. aureus
Protocol: as §1
For the further investigation of the exemplary compounds (Table 2), the following protocol was adopted: • (i) Bacteria (S. aureus BAA-44 and E. coli 25922) were grown in brain heart infusion (BHI) broth until they reached the stationary phase of growth. • (ii) The cells were harvested by centrifugation (3000 g for 15 min) with a table centrifuge, washed with 10 mM PBS at pH 7.4 containing 2.7 mM KCl and 0.14 M NaCl and suspended in PBS at an optical density of 0.7 at 650 nm corresponding to 10^8-10^9 cells/ml. • (iii) The bacteria, at the desired cell density (˜10^8 cells/ml) were incubated for 5 min in the dark with various concentrations of the exemplary compounds. • (iv) At the end of the incubation period the cells were washed three times with PBS, suspended in PBS, transferred into a 96-well microtitre plate (200 μl/well) and illuminated for 15 min with the Waldmann light source (15.2 mW/cm^2; 13.7 J/cm^2). The cells were illuminated from the bottom of the plate laying it on the glass cover of the lamp. • (v) After illumination, cell survival was determined by plating serially diluted aliquots of treated and untreated (i.e. no exemplary compound or light present) cells onto brain heart agar (BHA) and counting the number of colonies after 18-24 h incubation at 37° C.
the above colony forming unit (CFU) protocol was also used to investigate the photodynamic activity of very low concentrations of the compounds of the invention.

[4] = ATCC25922, 5 min, read-out: Growth inhibition (%), E. coli, 5 min incubation, illumination time 5 min
[5] = ATCC25922, read-out: Growth inhibition (%), E. coli, 5 min incubation, illumination time 0 min
[6] = ATCC25922, read-out: Growth inhibition (%), E. coli, 5 min incubation, illumination time 1 min
[7] = ATCC25922, read-out: Growth inhibition (%), E. coli, 5 min incubation, illumination time 10 min
[8] = ATCC25922, read-out: Growth inhibition (%), E. coli, 5 min incubation, illumination time 15 min
[9] = ATCC25922, read-out: Growth inhibition (%), E. coli, 5 min incubation, illumination time 30 min
[10] = BAA44, 5 min, read-out: Growth inhibition (%), S. aureus, 5 min incubation, illumination time 5 min
[11] = BAA44, read-out: Growth inhibition (%), S. aureus, 5 min incubation, illumination time 0 min
[12] = BAA44, read-out: Growth inhibition (%), S. aureus, 5 min incubation, illumination time 1 min
[13] = BAA44, read-out: Growth inhibition (%), S. aureus, 5 min incubation, illumination time 10 min
[14] = BAA44, read-out: Growth inhibition (%), S. aureus, 5 min incubation, illumination time 15 min
[15] = BAA44, read-out: Growth inhibition (%), S. aureus, 5 min incubation, illumination time 30 min

Molecule: CCCCCCCCCCCOc1ccc(-c2c3nc(c(-c4ccc(OCCC[N+](C)(C)C)cc4)c4ccc([nH]4)c(-c4ccc(OCCC[N+](C)(C)C)cc4)c4nc(c(-c5ccc(OCCC[N+](C)(C)C)cc5)c5ccc2[nH]5)C=C4)C=C3)cc1.[Cl-].[Cl-].[Cl-] [Compound 3, 5,10,15-tris-[4-(3-Trimethylammonio-propyloxy)-phenyl]-20-(4-undecyloxy-phenyl)-porphyrin trichloride, reference compound]
- inhibition at 3 µM [1, 4]: 99%
- inhibition at 3 µM [1, 5]: 5%
- inhibition at 3 µM [1, 6]: 68%
- inhibition at 3 µM [1, 7]: 100%
- inhibition at 3 µM [1, 8]: 99%
- inhibition at 3 µM [1, 9]: 99%
- inhibition at 3 µM [2, 10]: 100%
- inhibition at 3 µM [2, 11]: 21%
- inhibition at 3 µM [2, 12]: 83%
- inhibition at 3 µM [2, 13]: 100%
- inhibition at 3 µM [2, 14]: 100%
- inhibition at 3 µM [2, 15]: 100%
- Log reduction ([3]; dark toxicity (no illumination), 1 μM): <1 (<10^−1)
- Log reduction ([3]; dark toxicity (no illumination), 10 μM): >3 (>10^−3)
- Log reduction ([3]; photodynamic activity, 1 μM, illumination 15 min): >3 (>10^−3)
- Log reduction ([3]; photodynamic activity, 10 μM, illumination 15 min): >6 (>10^−6)

Molecule: 5-{4-[3-Dimethyl-(3-trimethylammonio-propyl)-ammonio-propyloxy]-phenyl}-15-(4-dodecyloxy-phenyl)-porphyrin dichloride [Compound 31]
- Growth inhibition (%) ([2]; illumination time 0 min): 9%
- Growth inhibition (%) ([2]; illumination time 1 min): 28%
- Growth inhibition (%) ([2]; illumination time 5 min): 38%
- Growth inhibition (%) ([2]; illumination time 10 min): 78%
- Growth inhibition (%) ([2]; illumination time 15 min): 82%
- Growth inhibition (%) ([2]; illumination time 30 min): 83%

Molecule: CCCCCCCCCCCOc1ccc(-c2c3nc(c(-c4ccc(OCCCCCCCCCCC)cc4)c4ccc([nH]4)c(-c4ccc(OCCC[N+](C)(C)C)cc4)c4nc(c(-c5ccc(OCCC[N+](C)(C)C)cc5)c5ccc2[nH]5)C=C4)C=C3)cc1 [Compound 29, 5,10-bis-[4-(3-Trimethylammonio-propyloxy)-phenyl]-15,20-bis-(4-undecyloxy-phenyl)-porphyrin dichloride, reference compound]
- inhibition at 3 µM [2, 10]: 49%
- inhibition at 3 µM [2, 11]: 14%
- inhibition at 3 µM [2, 12]: 43%
- inhibition at 3 µM [2, 13]: 53%
- inhibition at 3 µM [2, 14]: 55%
- inhibition at 3 µM [2, 15]: 55%

Molecule: 5,10,15-tris[3-(3-Trimethyl-ammoniopropyloxy)-phenyl]-20-(3-undecyloxy-phenyl)-porphyrin trichloride [Compound 33, reference compound]
- Growth inhibition (%) ([1]; illumination time 0 min): 6%
- Growth inhibition (%) ([1]; illumination time 1 min): 10%
- Growth inhibition (%) ([1]; illumination time 5 min): 25%
- Growth inhibition (%) ([1]; illumination time 10 min): 53%
- Growth inhibition (%) ([1]; illumination time 15 min): 67%
- Growth inhibition (%) ([1]; illumination time 30 min): 78%
- Growth inhibition (%) ([2]; illumination time 0 min): 22%
- Growth inhibition (%) ([2]; illumination time 1 min): 57%
- Growth inhibition (%) ([2]; illumination time 5 min): 99%
- Growth inhibition (%) ([2]; illumination time 10 min): 100%
- Growth inhibition (%) ([2]; illumination time 15 min): 100%
- Growth inhibition (%) ([2]; illumination time 30 min): 100%

Molecule: CCCCCCCCCCCOc1ccc(-c2c3nc(c(-c4ccc(OCCC[N+](CC)(CC)CC)cc4)c4ccc([nH]4)c(-c4ccc(OCCC[N+](CC)(CC)CC)cc4)c4nc(c(-c5ccc(OCCC[N+](CC)(CC)CC)cc5)c5ccc2[nH]5)C=C4)C=C3)cc1 [Compound 16, 5,10,15-tris-[4-(3-Triethylammonio-propyloxy)-phenyl]-20-(4-undecyloxy-phenyl)-porphyrin trichloride, reference compound]
- inhibition at 3 µM [1, 4]: 92%
- inhibition at 3 µM [1, 5]: 8%
- inhibition at 3 µM [1, 6]: 34%
- inhibition at 3 µM [1, 7]: 99%
- inhibition at 3 µM [1, 8]: 100%
- inhibition at 3 µM [1, 9]: 100%
- inhibition at 3 µM [2, 10]: 100%
- inhibition at 3 µM [2, 11]: 12%
- inhibition at 3 µM [2, 12]: 97%
- inhibition at 3 µM [2, 13]: 100%
- inhibition at 3 µM [2, 14]: 100%
- inhibition at 3 µM [2, 15]: 100%

Molecule: 5,15-bis-[3-(3-Trimethylammmonio-proploxy)-phenyl]-10-undecyl-porphyrin dichloride [Compound 28]
- Growth inhibition (%) ([1]; illumination time 0 min): 4%
- Growth inhibition (%) ([1]; illumination time 1 min): 21%
- Growth inhibition (%) ([1]; illumination time 5 min): 60%
- Growth inhibition (%) ([1]; illumination time 10 min): 73%
- Growth inhibition (%) ([1]; illumination time 15 min): 81%
- Growth inhibition (%) ([1]; illumination time 30 min): 92%
- Growth inhibition (%) ([2]; illumination time 0 min): 15%
- Growth inhibition (%) ([2]; illumination time 1 min): 91%
- Growth inhibition (%) ([2]; illumination time 5 min): 100%
- Growth inhibition (%) ([2]; illumination time 10 min): 100%
- Growth inhibition (%) ([2]; illumination time 15 min): 100%
- Growth inhibition (%) ([2]; illumination time 30 min): 100%

Molecule: 5-[4-(3-Dimethyldecyl-ammoniopropyloxy)-phenyl]-15-{4-[3-dimethyl-(3-dimethylaminopropyl)-ammoniopropyloxy]-phenyl}-porphyrin dichloride [Compound 32]
- Growth inhibition (%) ([1]; illumination time 0 min): 3%
- Growth inhibition (%) ([1]; illumination time 1 min): 10%
- Growth inhibition (%) ([1]; illumination time 5 min): 16%
- Growth inhibition (%) ([1]; illumination time 10 min): 22%
- Growth inhibition (%) ([1]; illumination time 15 min): 22%
- Growth inhibition (%) ([1]; illumination time 30 min): 38%
- Growth inhibition (%) ([2]; illumination time 0 min): 23%
- Growth inhibition (%) ([2]; illumination time 1 min): 100%
- Growth inhibition (%) ([2]; illumination time 5 min): 100%
- Growth inhibition (%) ([2]; illumination time 10 min): 100%
- Growth inhibition (%) ([2]; illumination time 15 min): 100%
- Growth inhibition (%) ([2]; illumination time 30 min): 100%

Molecule: 5,10,15-tris-[4-(3-Trimethyl-ammoniopropyloxy)-phenyl]-20-(4-tetradecyloxy-phenyl)-porphyrin trichloride [Compound 36, reference compound]
- Growth inhibition (%) ([1]; illumination time 0 min): 6%
- Growth inhibition (%) ([1]; illumination time 1 min): 56%
- Growth inhibition (%) ([1]; illumination time 5 min): 84%
- Growth inhibition (%) ([1]; illumination time 10 min): 90%
- Growth inhibition (%) ([1]; illumination time 15 min): 92%
- Growth inhibition (%) ([1]; illumination time 30 min): 95%
- Growth inhibition (%) ([2]; illumination time 0 min): 22%
- Growth inhibition (%) ([2]; illumination time 1 min): 96%
- Growth inhibition (%) ([2]; illumination time 5 min): 100%
- Growth inhibition (%) ([2]; illumination time 10 min): 100%
- Growth inhibition (%) ([2]; illumination time 15 min): 100%
- Growth inhibition (%) ([2]; illumination time 30 min): 100%
